Assays:
[1] = Solubility study on 3-iodobenzylamine hydrochloride in synthesis solvents; assay type: physicochemical
Description: 3-Iodobenzylamine hydrochloride recrystallized from protic solvents but was insoluble in aprotic organic solvents. No purity enhancement was observed during hot (reflux) slurries in aprotic organic solvents.

[2] = tested on: tumors (melanoma, colon carcinoma, prostate carcinoma); conditions: orally administered; syngeneic (melanoma, colon carcinoma) and xenograft (colon and prostate carcinoma) mouse models; cited from earlier work
neutrophils = conditions: oral, mice, cited from earlier work
colon carcinoma = conditions: oral, nude mice; cited from earlier work
TNF-α and MIP-1α = conditions: in vitro; cited from earlier work
[3] = tested on: collagen and adjuvant induced arthritis (AIA); conditions: experimental animal models; cited from earlier work
A3AR = conditions: synovial and peripheral blood mononuclear cells of AIA rats, upon IB-MECA treatment; cited from earlier work

| SMILES | Behavior at 21 C. ([1]; IPA, 10 solvent volumes) | Behavior at reflux ([1]; IPA, 10 solvent volumes) | Behavior at 21 C. ([1]; IPAc, 10 solvent volumes) | Behavior at reflux ([1]; IPAc, 10 solvent volumes) | Behavior at 21 C. ([1]; MeCN, 5 solvent volumes) | Behavior at reflux ([1]; MeCN, 5 solvent volumes) | Behavior at 21 C. ([1]; MeOH, 1 solvent volume) | Behavior at reflux ([1]; MeOH, 1 solvent volume) | Behavior at 21 C. ([1]; THF, 10 solvent volumes) | Behavior at reflux ([1]; THF, 10 solvent volumes) | development of tumors [2] | cytotoxic-induced myelo-toxicity (neutrophils) | production of neutrophils (neutrophils; via an increase in G-CSF) | neutrophil recovery after cytotoxic drug therapy (colon carcinoma) | progression of colon carcinoma (colon carcinoma) | production of MIP-1α (TNF-α and MIP-1α) | production of TNF-α (TNF-α and MIP-1α) | development of collagen and adjuvant induced arthritis [3] | A3AR level (A3AR) |
| --- | --- | --- | --- | --- | --- | --- | --- | --- | --- | --- | --- | --- | --- | --- | --- | --- | --- | --- | --- |
| Cl.NCc1cccc(I)c1 [3-iodobeuzylamine hydrochloride, 3-iodobenzylamine hydrochloride] | Insoluble | Soluble | Insoluble | Insoluble | Insoluble | Insoluble | Insoluble | Soluble | Insoluble | Insoluble |  |  |  |  |  |  |  |  |  |
| CNC(=O)[C@H]1O[C@@H](n2cnc3c(NCc4cccc(I)c4)ncnc32)[C@H](O)[C@@H]1O [IB-MECA, 1-deoxy-1-(6-{[(3-iodophenyl)methyl]amino}9H-purine-9-yl)-N-methyl-β-d-ribofuranuronamide] |  |  |  |  |  |  |  |  |  |  | inhibits the development of tumors | protects against cytotoxic-induced myelo-toxicity | stimulates the production of neutrophils | stimulates neutrophil recovery | inhibits progression of colon carcinoma | inhibited | inhibited | preventing the development | down regulates |
